Experimental data as given in patent publication US8952222B2, “Herbicide resistant sunflower plants derived from RW-B cultivar” (Anglo Netherlands Grain B.V., priority 2008, dated 2015).
Several values for one entry are separate records, joined by “and”; a condition that tells them apart may be missing. Identical values can stand only once. Marks after values point to notes of the source that are not given here.

Key:
Assay in all cases: Whole plant dose response to metsulfuron
Type in all cases: in vivo
sunflower line B770 = settings: 14 DAT; for Dry weight (as a % of the untreated plants): above ground biomass, line Suscp; for Phytotoxicity Index: line B770 (WT-Susceptible), scale 0-9
sunflower line B770imi = settings: line B770IMI (A205V), 14 DAT; for Dry weight (as a % of the untreated plants): above ground biomass; for Phytotoxicity Index: scale 0-9
Method: (§1) Seeds were sown in Petri dishes and, after germination, plantlets were transplanted to pots of 10 cm of diameter in a potting media consisting of equal parts of vermiculite, soil and sand. Plants were grown in a greenhouse under natural light conditions supplemented with 400 W sodium halide lamps to provide a 16 hr daylight. Day/night temperatures were 25 and 20° C., respectively. […] Experiment was arranged as a randomized block design with a full factorial (sunflower line x treatment) arrangement of treatments and 10 replications.
(§2) On the day of herbicide application ten plants of each genotype were cut at the cotyledonal node and dried at 60° C. for 48 hrs for zero-time dried weight determination.
(§3) […] Above ground biomass data from each line were converted to biomass accumulation after application by subtracting the appropriate average zero-time biomass from each sample. Dry biomass data were converted to percentages of the untreated control plants within each line to allow direct comparisons between groups. […] Plants without any symptoms were recorded as “0”, increasing levels of stunting and chlorosis with respect to the untreated control plants were recorded as “1” to “4”, increasing levels of leaf abnormalities and leaf necrosis were recorded from “5” to “8”, and dead plants with total necrosis of the apex were recorded as “9”.

sunflower line SuBL = settings: line SuBL (P197L), 14 DAT; for Dry weight (as a % of the untreated plants): above ground biomass; for Phytotoxicity Index: scale 0-9
Method: as §1, §2, §3

sunflower line RW-B = settings: line RW-B (W574L), 14 DAT; for Dry weight (as a % of the untreated plants): above ground biomass; for Phytotoxicity Index: scale 0-9
Method: as §1, §2, §3

Question: COc1nc(C)nc(NC(=O)NS(=O)(=O)c2ccccc2C(=O)O)n1 [metsulfuron] was tested. Which “Dry weight (as a % of the untreated plants)” value (sunflower line B770; metsulfuron 0.5x = 2.5 g ai/ha) did it give?
Answer: 23.7^d %

Question: What about the “Dry weight (as a % of the untreated plants)” value (sunflower line B770; metsulfuron 1x = 5 g ai/ha) of the same molecule?
Answer: 20^d %

Question: And the “Dry weight (as a % of the untreated plants)” value (sunflower line B770; metsulfuron 2x = 10 g ai/ha)?
Answer: 19.4^d %

Question: What about the “Dry weight (as a % of the untreated plants)” value (sunflower line B770; metsulfuron 3x = 15 g ai/ha) of the same molecule?
Answer: 19.2^d %

Question: What about the “Dry weight (as a % of the untreated plants)” value (sunflower line B770; metsulfuron 4x = 20 g ai/ha) of the same molecule?
Answer: 19.4^c %

Question: What about the “Phytotoxicity Index” value (sunflower line B770; metsulfuron 0.5x = 2.5 g ai/ha) of the same molecule?
Answer: 9^a

Question: And the “Phytotoxicity Index” value (sunflower line B770; metsulfuron 1x = 5 g ai/ha)?
Answer: 9^a

Question: And the “Phytotoxicity Index” value (sunflower line B770; metsulfuron 2x = 10 g ai/ha)?
Answer: 9^a

Question: What about the “Phytotoxicity Index” value (sunflower line B770; metsulfuron 3x = 15 g ai/ha) of the same molecule?
Answer: 9^a

Question: What about the “Phytotoxicity Index” value (sunflower line B770; metsulfuron 4x = 20 g ai/ha) of the same molecule?
Answer: 9^a

Question: What about the “Dry weight (as a % of the untreated plants)” value (sunflower line B770imi; metsulfuron 0.5x = 2.5 g ai/ha) of the same molecule?
Answer: 42^c %

Question: What about the “Dry weight (as a % of the untreated plants)” value (sunflower line B770imi; metsulfuron 1x = 5 g ai/ha) of the same molecule?
Answer: 30.1^c %

Question: What about the “Dry weight (as a % of the untreated plants)” value (sunflower line B770imi; metsulfuron 2x = 10 g ai/ha) of the same molecule?
Answer: 30.4^c %

Question: What about the “Dry weight (as a % of the untreated plants)” value (sunflower line B770imi; metsulfuron 3x = 15 g ai/ha) of the same molecule?
Answer: 30^c %

Question: And the “Dry weight (as a % of the untreated plants)” value (sunflower line B770imi; metsulfuron 4x = 20 g ai/ha)?
Answer: 30.2^b %

Question: And the “Phytotoxicity Index” value (sunflower line B770imi; metsulfuron 0.5x = 2.5 g ai/ha)?
Answer: 3.3^b

Question: What about the “Phytotoxicity Index” value (sunflower line B770imi; metsulfuron 1x = 5 g ai/ha) of the same molecule?
Answer: 5.2^b

Question: And the “Phytotoxicity Index” value (sunflower line B770imi; metsulfuron 3x = 15 g ai/ha)?
Answer: 9^a

Question: And the “Phytotoxicity Index” value (sunflower line B770imi; metsulfuron 4x = 20 g ai/ha)?
Answer: 9^a

Question: And the “Dry weight (as a % of the untreated plants)” value (sunflower line SuBL; metsulfuron 0.5x = 2.5 g ai/ha)?
Answer: 83.3% and 83.3^b %

Question: And the “Dry weight (as a % of the untreated plants)” value (sunflower line SuBL; metsulfuron 1x = 5 g ai/ha)?
Answer: 72.4^b %

Question: What about the “Dry weight (as a % of the untreated plants)” value (sunflower line SuBL; metsulfuron 2x = 10 g ai/ha) of the same molecule?
Answer: 52.2^b %

Question: What about the “Dry weight (as a % of the untreated plants)” value (sunflower line SuBL; metsulfuron 3x = 15 g ai/ha) of the same molecule?
Answer: 35.7^b %

Question: And the “Dry weight (as a % of the untreated plants)” value (sunflower line SuBL; metsulfuron 4x = 20 g ai/ha)?
Answer: 30.3% and 30.3^b %

Question: What about the “Phytotoxicity Index” value (sunflower line SuBL; metsulfuron 2x = 10 g ai/ha) of the same molecule?
Answer: 4.3^c

Question: And the “Phytotoxicity Index” value (sunflower line SuBL; metsulfuron 3x = 15 g ai/ha)?
Answer: 7.2^b

Question: What about the “Dry weight (as a % of the untreated plants)” value (sunflower line RW-B; metsulfuron 2x = 10 g ai/ha) of the same molecule?
Answer: 73.9^a %

Question: And the “Dry weight (as a % of the untreated plants)” value (sunflower line RW-B; metsulfuron 3x = 15 g ai/ha)?
Answer: 60.7^a %

Question: And the “Dry weight (as a % of the untreated plants)” value (sunflower line RW-B; metsulfuron 4x = 20 g ai/ha)?
Answer: 38.1^a %

Question: And the “Phytotoxicity Index” value (sunflower line RW-B; metsulfuron 0.5x = 2.5 g ai/ha)?
Answer: 0^c

Question: And the “Phytotoxicity Index” value (sunflower line RW-B; metsulfuron 1x = 5 g ai/ha)?
Answer: 0.6^d

Question: What about the “Phytotoxicity Index” value (sunflower line RW-B; metsulfuron 2x = 10 g ai/ha) of the same molecule?
Answer: 1.1^d

Question: And the “Phytotoxicity Index” value (sunflower line RW-B; metsulfuron 3x = 15 g ai/ha)?
Answer: 2.8^c
